Measurements published in patent US20250213701A1, “MEDICAMENT FOR TREATING HUMAN TUMOR BASED ON ERF3A-TARGETING PROTEOLYSIS MECHANISM” (SUZHOU DEGEN BIO-MEDICAL CO., LTD., priority 2022, published 2025).

Key:
Assay type in all cases: cell-based, human
VCaP cells = experiment: Anti-proliferative toxicity against prostate cancer cell line Vcap (CCK8); settings: Homo sapiens, 72 h, 3 days, CCK8
Experimental: (§1) Example 82: Detection of Anti-Proliferative Toxicity Against Prostate Cancer Cell Lines Vcap, 22Rv1, and PC-3
(§2) Vcap cells (purchased from the Cell Bank of the Chinese Academy of Sciences, Cat. No. SCSP-5034) were subcultured in a culture medium (DMEM medium+1% penicillin-streptomycin dual-antibiotic solution+10% fetal bovine serum) in an incubator at 5% carbon dioxide and 37° C. 22Rv1 cells (purchased from the Cell Bank of the Chinese Academy of Sciences, Cat. No. TCHu100) were subcultured in a culture medium (RPMI-1640 medium+1% penicillin-streptomycin dual-antibiotic solution+10% fetal bovine serum) in an incubator at 5% carbon dioxide and 37° C.
VCap cells were seeded at 20000 cells/well (90 μL) on a 96-well plate and cultured for 72 h. The original medium was removed, and a new medium of 90 μL was added.
(§3) 10 mM compound stock solutions were prepared in DMSO.
For VCap cells, the compound stock solution was diluted with DMSO to give DMSO solutions 1-10 at concentrations of 0 μM, 80 μM, 16 μM, 3.2 μM, 1.5 μM, 0.5 μM, 0.15 μM, 0.05 μM, 0.025 μM, and 0.0005 μM.
For Vcap cells, 2 μL of each of the above solutions 1-10 was added to 98 μL of Vcap medium to give mixed solutions 20-29 of the compound and the medium.
For Vcap cells, 10 μL of each of the above solutions 20-29 was added to the above cell seed solution to give a total volume of 100 μL (90 μL+10 μL), where the concentrations of the compound in wells were 0 μM, 0.16 μM, 0.032 μM, 0.006 μM, 0.003 μM, 0.001 μM, 0.0003 μM, 0.0001 μM, 0.00005 μM, and 0.00001 μM. All concentrations were in triplicate.
(§4) After the above-treated cells were cultured for 3 days, 10 μL of the CCK8 solution (DOJINDO, Cat. No. PF725) was added to each well. The plate was incubated in an incubator at 37° C. for 1-4 h and then detected on a microplate reader for the reading at 450 nm.

22Rv1 cells = experiment: Anti-proliferative toxicity against prostate cancer cell line 22Rv1 (CCK8); settings: Homo sapiens, 72 h, 3 days, CCK8
Experimental: as §1, §2
22Rv1 cells were seeded at 5000 cells/well (90 μL) on a 96-well plate and cultured for 48 h.
as §3
(§5) For 22Rv1 cells and PC-3 cells, the compound stock solution was diluted with DMSO to give DMSO solutions 11-19 at concentrations of 0 μM, 500 μM, 100 μM, 20 μM, 4 μM, 0.8 μM, 0.16 μM, 0.032 μM, 0.0064 μM.
For 22Rv1 cells, 2 μL of each of the above solutions 11-19 was added to 98 μL of 22Rv1 medium to give mixed solutions 30-38 of the compound and the medium.
(§6) For 22Rv1 and PC-3 cells, 10 μL of each of the above solutions 30-38 or 39-47 was added to the above cell seed solution to give a total volume of 100 μL (90 μL+10 μL), where the concentrations of the compound in wells were 0 μM, 1.0 μM, 0.2 μM, 0.04 μM, 0.008 μM, 0.0016 μM, 0.00032 μM, 0.00006 μM, and 0.00001 μM. All concentrations were in triplicate.
as §4

PC-3 cells = experiment: Anti-proliferative toxicity against prostate cancer cell line PC-3 (CCK8); settings: Homo sapiens, 72 h, 3 days
Experimental: as §1
PC-3 cells (purchased from the Cell Bank of the Chinese Academy of Sciences, Cat. No. SCSP-532) were subcultured in a culture medium (F12K medium+1% penicillin-streptomycin dual-antibiotic solution+10% fetal bovine serum) in an incubator at 5% carbon dioxide and 37° C.
PC-3 cells were seeded at 4000 cells/well (90 μL) on a 96-well plate and cultured for 24 h.
as §3, §5
For PC-3 cells, 2 μL of each of the above solutions 11-19 was added to 98 μL of PC-3 medium to give mixed solutions 39-47 of the compound and the medium.
as §6, §4

C[C@]12C=CC(=O)N[C@@H]1CC[C@@H]1[C@@H]2CC[C@]2(C)[C@@H](C(=O)NCCNc3cccc4c3C(=O)N(C3CCC(=O)NC3=O)C4=O)CC[C@@H]12 (stereo partly drawn) [C1, N-(2-((4-(2-(3-(2,6-dioxopiperidine))-isoindole-1,3-dione))amino)ethyl)-3-oxo-4-aza-5α-androst-1-ene-17β-carboxamide]
IC50 (VCaP cells): > 1000 nM
IC50 (22Rv1 cells): > 1000 nM
IC50 (PC-3 cells): > 1000 nM

C[C@]12C=CC(=O)N[C@@H]1CC[C@@H]1[C@@H]2CC[C@]2(C)[C@@H](C(=O)NCCNc3ccc4c(c3)C(=O)N(C3CCC(=O)NC3=O)C4=O)CC[C@@H]12 (stereo partly drawn) [C2, N-(2-((5-(2-(3-(2,6-dioxopiperidine))-isoindole-1,3-dione))amino)ethyl)-3-oxo-4-aza-5α-androst-1-ene-17β-carboxamide]
IC50 (VCaP cells): > 1000 nM
IC50 (22Rv1 cells): > 1000 nM
IC50 (PC-3 cells): > 1000 nM

C[C@]12C=CC(=O)N[C@@H]1CC[C@@H]1[C@@H]2CC[C@]2(C)[C@@H](C(=O)NCCCNc3cccc4c3C(=O)N(C3CCC(=O)NC3=O)C4=O)CC[C@@H]12 (stereo partly drawn) [C3, N-(3-((4-(2-(3-(2,6-dioxopiperidine))-isoindole-1,3-dione))amino)propyl)-3-oxo-4-aza-5α-androst-1-ene-17β-carboxamide]
IC50 (VCaP cells): > 1000 nM
IC50 (22Rv1 cells): > 1000 nM
IC50 (PC-3 cells): > 1000 nM

C[C@]12C=CC(=O)N[C@@H]1CC[C@@H]1[C@@H]2CC[C@]2(C)[C@@H](C(=O)NCCCNc3ccc4c(c3)C(=O)N(C3CCC(=O)NC3=O)C4=O)CC[C@@H]12 (stereo partly drawn) [C4, N-(3-((5-(2-(3-(2,6-dioxopiperidine))-isoindole-1,3-dione))amino)propyl)-3-oxo-4-aza-5α-androst-1-ene-17β-carboxamide]
IC50 (VCaP cells): > 1000 nM
IC50 (22Rv1 cells): > 1000 nM
IC50 (PC-3 cells): > 1000 nM

C[C@]12C=CC(=O)N[C@@H]1CC[C@@H]1[C@@H]2CC[C@]2(C)[C@@H](C(=O)NCCCCNc3cccc4c3C(=O)N(C3CCC(=O)NC3=O)C4=O)CC[C@@H]12 (stereo partly drawn) [C5, N-(4-((4-(2-(3-(2,6-dioxopiperidine))-isoindole-1,3-dione))amino)butyl)-3-oxo-4-aza-5α-androst-1-ene-17β-carboxamide]
IC50 (VCaP cells): > 1000 nM
IC50 (22Rv1 cells): > 1000 nM
IC50 (PC-3 cells): > 1000 nM

C[C@]12C=CC(=O)N[C@@H]1CC[C@@H]1[C@@H]2CC[C@]2(C)[C@@H](C(=O)NCCCCNc3ccc4c(c3)C(=O)N(C3CCC(=O)NC3=O)C4=O)CC[C@@H]12 (stereo partly drawn) [C6, N-(4-((5-(2-(3-(2,6-dioxopiperidine))-isoindole-1,3-dione))amino)butyl)-3-oxo-4-aza-5α-androst-1-ene-17β-carboxamide]
IC50 (VCaP cells): > 1000 nM
IC50 (22Rv1 cells): > 1000 nM
IC50 (PC-3 cells): > 1000 nM

C[C@]12C=CC(=O)N[C@@H]1CC[C@@H]1[C@@H]2CC[C@]2(C)[C@@H](C(=O)NCCCCCNc3cccc4c3C(=O)N(C3CCC(=O)NC3=O)C4=O)CC[C@@H]12 (stereo partly drawn) [C7, N-(5-((4-(2-(3-(2,6-dioxopiperidine))-isoindole-1,3-dione))amino)pentyl)-3-oxo-4-aza-5α-androst-1-ene-17β-carboxamide]
IC50 (VCaP cells): > 1000 nM
IC50 (22Rv1 cells): > 1000 nM
IC50 (PC-3 cells): > 1000 nM

C[C@]12C=CC(=O)N[C@@H]1CC[C@@H]1[C@@H]2CC[C@]2(C)[C@@H](C(=O)NCCCCCNc3ccc4c(c3)C(=O)N(C3CCC(=O)NC3=O)C4=O)CC[C@@H]12 (stereo partly drawn) [C8, N-(5-((5-(2-(3-(2,6-dioxopiperidine))-isoindole-1,3-dione))amino)pentyl)-3-oxo-4-aza-5α-androst-1-ene-17β-carboxamide]
IC50 (VCaP cells): > 1000 nM
IC50 (22Rv1 cells): > 1000 nM
IC50 (PC-3 cells): > 1000 nM

C[C@]12C=CC(=O)N[C@@H]1CC[C@@H]1[C@@H]2CC[C@]2(C)[C@@H](C(=O)NCCCCCCNc3cccc4c3C(=O)N(C3CCC(=O)NC3=O)C4=O)CC[C@@H]12 (stereo partly drawn) [C9, N-(6-((4-(2-(3-(2,6-dioxopiperidine))-isoindole-1,3-dione))amino)hexyl)-3-oxo-4-aza-5α-androst-1-ene-17β-carboxamide]
IC50 (VCaP cells): > 1000 nM
IC50 (22Rv1 cells): > 1000 nM
IC50 (PC-3 cells): > 1000 nM

C[C@]12C=CC(=O)N[C@@H]1CC[C@@H]1[C@@H]2CC[C@]2(C)[C@@H](C(=O)NCCCCCCNc3ccc4c(c3)C(=O)N(C3CCC(=O)NC3=O)C4=O)CC[C@@H]12 (stereo partly drawn) [C10, N-(6-((5-(2-(3-(2,6-dioxopiperidine))-isoindole-1,3-dione))amino)hexyl)-3-oxo-4-aza-5α-androst-1-ene-17β-carboxamide]
IC50 (VCaP cells): > 1000 nM
IC50 (22Rv1 cells): > 1000 nM
IC50 (PC-3 cells): > 1000 nM

C[C@]12C=CC(=O)N[C@@H]1CC[C@@H]1[C@@H]2CC[C@]2(C)[C@@H](C(=O)NCCCCCCCNc3cccc4c3C(=O)N(C3CCC(=O)NC3=O)C4=O)CC[C@@H]12 (stereo partly drawn) [C11, N-(7-((4-(2-(3-(2,6-dioxopiperidine))-isoindole-1,3-dione))amino)heptyl)-3-oxo-4-aza-5α-androst-1-ene-17β-carboxamide]
IC50 (VCaP cells): > 1000 nM
IC50 (22Rv1 cells): > 1000 nM
IC50 (PC-3 cells): > 1000 nM

C[C@]12C=CC(=O)N[C@@H]1CC[C@@H]1[C@@H]2CC[C@]2(C)[C@@H](C(=O)NCCCCCCCNc3ccc4c(c3)C(=O)N(C3CCC(=O)NC3=O)C4=O)CC[C@@H]12 (stereo partly drawn) [C12, N-(7-((5-(2-(3-(2,6-dioxopiperidine))-isoindole-1,3-dione))amino)heptyl)-3-oxo-4-aza-5α-androst-1-ene-17β-carboxamide]
IC50 (VCaP cells): > 1000 nM
IC50 (22Rv1 cells): > 1000 nM
IC50 (PC-3 cells): > 1000 nM

C[C@]12C=CC(=O)N[C@@H]1CC[C@@H]1[C@@H]2CC[C@]2(C)[C@@H](C(=O)N3CCC(CN4CCN(c5cccc6c5C(=O)N(C5CCC(=O)NC5=O)C6=O)CC4)CC3)CC[C@@H]12 (stereo partly drawn) [C13, 1-(4-(2-(3-(2,6-dioxopiperidine))-isoindole-1,3-dione))-4-(4-(1-(3-oxo-4-aza-5α-androst-1-ene-17β-formyl)piperidine)methyl)-piperazine]
IC50 (VCaP cells): > 1000 nM
IC50 (22Rv1 cells): > 1000 nM
IC50 (PC-3 cells): > 1000 nM

C[C@]12C=CC(=O)N[C@@H]1CC[C@@H]1[C@@H]2CC[C@]2(C)[C@@H](C(=O)N3CCC(CN4CCN(c5ccc6c(c5)C(=O)N(C5CCC(=O)NC5=O)C6=O)CC4)CC3)CC[C@@H]12 (stereo partly drawn) [C14, 1-(5-(2-(3-(2,6-dioxopiperidine))-isoindole-1,3-dione))-4-(4-(1-(3-oxo-4-aza-5α-androst-1-ene-17β-formyl)piperidine)methyl)-piperazine]
IC50 (VCaP cells): > 1000 nM
IC50 (22Rv1 cells): > 1000 nM
IC50 (PC-3 cells): > 1000 nM

C[C@]12C=CC(=O)N[C@@H]1CC[C@@H]1[C@@H]2CC[C@]2(C)[C@@H](C(=O)Nc3ccc(OCCNc4cccc5c4C(=O)N(C4CCC(=O)NC4=O)C5=O)cc3)CC[C@@H]12 (stereo partly drawn) [C15, N-(4-((2-((4-(2-(3-(2,6-dioxopiperidine))-isoindole-1,3-dione))amino)ethyl)oxy)phenyl)-3-oxo-4-aza-5α-androst-1-ene-17β-carboxamide]
IC50 (VCaP cells): 10 to 1000 nM
IC50 (22Rv1 cells): > 1000 nM
IC50 (PC-3 cells): > 1000 nM

C[C@]12C=CC(=O)N[C@@H]1CC[C@@H]1[C@@H]2CC[C@]2(C)[C@@H](C(=O)Nc3ccc(OCCNc4ccc5c(c4)C(=O)N(C4CCC(=O)NC4=O)C5=O)cc3)CC[C@@H]12 (stereo partly drawn) [C16, N-(4-((2-((5-(2-(3-(2,6-dioxopiperidine))-isoindole-1,3-dione))amino)ethyl)oxy)phenyl)-3-oxo-4-aza-5α-androst-1-ene-17β-carboxamide]
IC50 (VCaP cells): > 1000 nM
IC50 (22Rv1 cells): > 1000 nM
IC50 (PC-3 cells): > 1000 nM
